This note sets out measurements from patent US9163012B2, “Carbamate and urea inhibitors of 11β-hydroxysteroid dehydrogenase 1” (Vitae Pharmaceuticals, Inc., priority 2009, dated 2015).

For this test, the target named is 11β-HSD1 (Homo sapiens (Human), UniProt P28845). Kind of test: Biological Test Example 1: inhibition of a microsomal preparation of 11β-HSD1 (SPA). The conditions noted are these: for inhibition at 0.111 µM: read-out: Average % inhibition at 111 nM. It is filed as biochemical. How it is done: All reactions were carried out at rt in 96 well clear flexible PET Microbeta plates (PerkinElmer). […] After a 10 minute pre-incubation, 50 μL of enzyme solution containing microsomes isolated from CHO cells overexpressing human 11-HSD1 (10-20 μg/ml of total protein) was added, and the plates were incubated for 90 minutes at rt. The reaction was stopped by adding 50 μl of the SPA beads suspension containing 10 μM […], 5 mg/ml protein A coated YSi SPA beads (GE Healthcare) and 3.3 μg/ml of anti-cortisol antibody (East Coast Biologics) in Superblock buffer (Bio-Rad). The plates were shaken for 120 minutes at rt, and the SPA signal corresponding to [^3H]cortisol was measured on a Microbeta plate reader.

Where [1] appears, read: Biological Test Example 1, 100 nM compound.
[2] abbreviates: Biological Test Example 1, microsomes from CHO cells overexpressing human 11β-HSD1, read-out: IC50 Range.
Where [3] appears, read: Biological Test Example 1, read-out: IC50.
The mark [4] stands for this setting: read-out: Average % inhibition at 100 nM, Biological Test Example 1, 100 nM compound.
[5] abbreviates: read-out: Average % inhibition at 100 nM.

Molecules are shown by their SMILES. Like-named read-outs stand apart in the source and are kept apart here. Where only a bound is given, the exact number is not on record here.

Sequence of 11β-HSD1 (P28845 whole entry): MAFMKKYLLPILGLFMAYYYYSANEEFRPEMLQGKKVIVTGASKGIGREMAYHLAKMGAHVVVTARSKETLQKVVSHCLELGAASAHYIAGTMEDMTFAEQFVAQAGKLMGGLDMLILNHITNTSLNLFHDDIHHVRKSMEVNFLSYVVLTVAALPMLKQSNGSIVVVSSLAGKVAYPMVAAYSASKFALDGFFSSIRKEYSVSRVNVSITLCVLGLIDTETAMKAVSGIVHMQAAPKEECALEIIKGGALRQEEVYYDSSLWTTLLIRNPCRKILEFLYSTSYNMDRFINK

A word on the IC50: it is the concentration that gives 50% inhibition. On to `Cc1ccc(C2CCN(C(=O)OC3C4CC5CC3CC(C(N)=O)(C5)C4)C2)nc1` (single isomer, unassigned) [EXAMPLE 35 Isomer 2, cis-1-carbamoyl-4-adamantyl 3-(5-methylpyridin-2-yl)pyrrolidine-1-carboxylate], for which the “Average % inhibition at 100 nM” value under setting [1] worked out at 8.1%. The IC50 by setting is: under setting [2], greater than 100 nM; under setting [3], greater than 100 nM.
By inhibition is commonly meant the percentage by which the read-out fell short of the control. Turning to `NC(=O)[C@]12CC3CC(C1)[C@@H](OC(=O)N1CC[C@H](n4c(=O)[nH]c5ccccc54)C1)C(C3)C2` [EXAMPLE 60, (S)-trans-1-carbamoyl-4-adamantyl 3-(2-oxo-2,3-dihydro-1H-benzo[d]imidazol-1-yl)pyrrolidine-1-carboxylate], the half-inhibitory concentration (IC50) is less than 100 nM under setting [2] and 0.76 nM under setting [3]. For the same compound, under setting [4], the inhibition at 0.1 µM is 93.9%.
Turning to `Cn1ccc(-c2cnc(C3CCN(C(=O)OC4C5CC6CC4CC(C(N)=O)(C6)C5)C3)nc2)cc1=O` (single isomer, unassigned; isomer 1) [EXAMPLE 57 Isomer 1, trans-1-carbamoyl-4-adamantyl 3-(5-(1-methyl-2-oxo-1,2-dihydropyridin-4-yl)pyrimidin-2-yl)pyrrolidine-1-carboxylate], the “Average % inhibition at 100 nM” value turned out to be 65.0%. In addition, the IC50 (read-out: IC50) is 50.5 nM. Under “read-out: IC50 Range”, the IC50 was less than 100 nM.
Consider `NC(=O)[C@]12CC3CC(C1)[C@@H](OC(=O)N1CC[C@@H](Oc4ccc5nccn5n4)C1)C(C3)C2` [EXAMPLE 3, (R)-(trans-(1-carbamoyl-4-adamantyl)) 3-(imidazo[1,2-b]pyridazin-6-yloxy)pyrrolidine-1-carboxylate], for which the IC50 runs as follows: under setting [2], less than 100 nM; under setting [3], 6.39 nM. In addition, the inhibition at 0.1 µM under setting [4] amounted to 92.1%.
`O=C(OC1C2CC3CC(C2)CC1C3)N1CCC(c2nc(-c3ccncc3)cs2)C1` (stereo not shown) [EXAMPLE 51, 2-adamantyl 3-(4-(pyridin-4-yl)thiazol-2-yl)pyrrolidine-1-carboxylate]: the IC50 was less than 100 nM under setting [2] and 0.7 nM under setting [3]. Also, under setting [4], the inhibition at 0.1 µM was 96.8%.
On to `NC(=O)c1cnc(C2CCN(C(=O)OC3C4CC5CC3CC(C(N)=O)(C5)C4)C2)nc1` (single isomer, unassigned) [EXAMPLE 47 Isomer 2, 1-carbamoyl-4-adamantyl 3-(5-carbamoylpyrimidin-2-yl)pyrrolidine-1-carboxylate], for which the “Average % inhibition at 100 nM” value under setting [1] was 55.6%. For the same compound, the IC50 is less than 100 nM under setting [2] and 91.6 nM under setting [3].
Turning to `Cc1csc(C2CCN(C(=O)OC3C4CC5CC3CC(C(N)=O)(C5)C4)C2)n1` (single isomer, unassigned) [EXAMPLE 42 Isomer 1, transl-carbamoyl-4-adamantyl 3-(4-methylthiazol-2-yl)pyrrolidine-1-carboxylate], under setting [1], the “Average % inhibition at 100 nM” value is recorded as 91.8%.
As to `Cc1nnc(C2CCCN(C(=O)OC3C4CC5CC3CC(O)(C5)C4)C2)o1` (stereo not shown) [EXAMPLE 25, 1-hydroxy-4-adamantyl 3-(5-methyl-1,3,4-oxadiazol-2-yl)piperidine-1-carboxylate], the IC50 is less than 100 nM under setting [2] and 39.5 nM under setting [3]. Besides, under setting [4], the inhibition at 0.1 µM was found to be 69.9%.
In the case of `NC(=O)[C@]12CC3CC(C1)[C@@H](OC(=O)N1CC[C@@H](n4c(=O)[nH]c5cc(Cl)cnc54)C1)C(C3)C2` [EXAMPLE 69, (R)-trans-1-carbamoyl-4-adamantyl 3-(6-chloro-2-oxo-1H-imidazo[4,5-b]pyridin-3(2H)-yl)pyrrolidine-1-carboxylate], the IC50 is less than 100 nM under setting [2] and 1.04 nM under setting [3]. Further, the inhibition at 0.1 µM under setting [4] stood at 97%.
`NC(=O)[C@]12CC3CC(C1)[C@@H](OC(=O)N1CCCC1c1ccccn1)C(C3)C2` (stereo partly drawn) [EXAMPLE 19, trans-1-carbamoyl-4-adamantyl 2-(pyridin-2-yl)pyrrolidine-1-carboxylate]: the IC50 runs as follows: under setting [2], less than 100 nM; under setting [3], 6.74 nM. In addition, the inhibition at 0.1 µM under setting [5] was determined as 93.2%.
For the compound `NC(=O)[C@]12CC3CC(C1)[C@@H](OC(=O)N1CCC(c4ncc(Cl)cn4)C1)C(C3)C2` (single isomer, unassigned) [EXAMPLE 26 Isomer 2, cis-(1-carbamoyl-4-adamantyl) 3-(5-chloropyrimidin-2-yl)pyrrolidine-1-carboxylate], the “Average % inhibition at 100 nM” value under setting [1] stood at 26.3%. Also, the IC50 reads like this: under setting [2], greater than 100 nM; under setting [3], greater than 100 nM.
For the compound `Cn1ccc(-c2csc(C3CCN(C(=O)O[C@H]4C5CC6CC4C[C@](C(N)=O)(C6)C5)C3)n2)cc1=O` (stereo partly drawn) [EXAMPLE 56, trans-1-carbamoyl-4-adamantyl 3-(4-(1-methyl-2-oxo-1,2-dihydropyridin-4-yl)thiazol-2-yl)pyrrolidine-1-carboxylate], the IC50 under setting [2] was less than 100 nM and the IC50 under setting [3] was 1.95 nM. In addition, the inhibition at 0.1 µM under setting [4] amounted to 96.7%.
As for `Cn1c(=O)n([C@H]2CCN(C(=O)O[C@H]3C4CC5CC3C[C@](C(N)=O)(C5)C4)C2)c2ccc(C#N)cc21` [EXAMPLE 70, (S)-trans-1-carbamoyl-4-adamantyl 3-(5-cyano-3-methyl-2-oxo-2,3-dihydro-1H-benzo[d]imidazol-1-yl)pyrrolidine-1-carboxylate], under setting [2], the IC50 is less than 100 nM. Further, the inhibition at 0.1 µM under setting [5] turned out to be 91.3%.
For the compound `CCOC(=O)C1(Cc2ccccc2OC)CCCN(C(=O)OC2C3CC4CC(C3)CC2C4)C1` (stereo not shown) [EXAMPLE 14, 1-(2-adamantyl) 3-ethoxycarbonyl-3-(2-methoxybenzyl)piperidine-1-carboxylate], the inhibition at 0.111 µM is 87.6%. For the same compound, the IC50 under setting [2] is less than 100 nM. For the setting “read-out: IC50”, the IC50 turned out to be 7.15 nM.
Take `NC(=O)c1cnc(C2CCN(C(=O)OC3C4CC5CC3CC(C(N)=O)(C5)C4)C2)nc1` (single isomer, unassigned) [EXAMPLE 47 Isomer 1, 1-carbamoyl-4-adamantyl 3-(5-carbamoylpyrimidin-2-yl)pyrrolidine-1-carboxylate]: the “Average % inhibition at 100 nM” value under setting [1] was determined as 6.1%. Moreover, the IC50 was greater than 100 nM under setting [2] and greater than 100 nM under setting [3].
Consider `Cc1ncc(C2CCN(C(=O)OC3C4CC5CC3CC(C(N)=O)(C5)C4)C2)cn1` (single isomer, unassigned) [EXAMPLE 36 Isomer 2, 1-carbamoyl-4-adamantyl 3-(2-methylpyrimidin-5-yl)pyrrolidine-1-carboxylate], for which, under setting [1], the “Average % inhibition at 100 nM” value stood at 1.5%. Also, the IC50 runs as follows: under setting [2], greater than 100 nM; under setting [3], greater than 100 nM.
For the compound `O=C(OC1C2CC3CC1CC(O)(C3)C2)N1CCC(c2ncc(Cl)cn2)C1` (single isomer, unassigned) [EXAMPLE 24 Isomer 1, trans-1-hydroxy-4-adamantyl 3-(5-chloropyrimidin-2-yl)pyrrolidine-1-carboxylate], under setting [1], the “Average % inhibition at 100 nM” value was determined as 98.6%.
Turning to `NC(=O)[C@]12CC3CC(C1)[C@@H](OC(=O)N1CC[C@@H](n4c(=O)[nH]c5ccccc54)C1)C(C3)C2` [EXAMPLE 61, (R)-trans-1-carbamoyl-4-adamantyl 3-(2-oxo-2,3-dihydro-1H-benzo[d]imidazol-1-yl)pyrrolidine-1-carboxylate], the IC50 runs as follows: under setting [2], less than 100 nM; under setting [3], 4.17 nM. Further, the inhibition at 0.1 µM under setting [4] was found to be 89.9%.
Taken in the same sequence, the figures for `Cn1c(=O)ccc2cc(C3CCN(C(=O)OC4C5CC6CC(C5)CC4C6)C3)ccc21` (stereo not shown) [EXAMPLE 17, 2-adamantyl 3-(1-methyl-2-oxo-1,2-dihydroquinolin-6-yl)pyrrolidine-1-carboxylate] were less than 100 nM, 1.96 nM and 94.2%.
The matching figures for `Cc1nc2cccc(Cl)c2n1[C@H]1CCN(C(=O)OC2C3CC4CC2CC(C(N)=O)(C4)C3)C1` (stereo partly drawn) [EXAMPLE 76, (S)-1-carbamoyl-4-adamantyl 3-(7-chloro-2-methyl-1H-benzo[d]imidazol-1-yl)pyrrolidine-1-carboxylate]: less than 100 nM, 1.11 nM and 93.6%.
Consider `Cc1ncc(C2CCN(C(=O)OC3C4CC5CC3CC(C(N)=O)(C5)C4)C2)cn1` (single isomer, unassigned) [EXAMPLE 36 Isomer 1, 1-carbamoyl-4-adamantyl 3-(2-methylpyrimidin-5-yl)pyrrolidine-1-carboxylate], for which the “Average % inhibition at 100 nM” value under setting [1] came to 59.1%. Further, the IC50 reads like this: under setting [2], less than 100 nM; under setting [3], 83.7 nM.
Consider `NC(=O)[C@]12CC3CC(C1)[C@@H](OC(=O)N1CC[C@@H](n4c(=O)[nH]c5cccc(Cl)c54)C1)C(C3)C2` [EXAMPLE 68, (R)-trans-1-carbamoyl-4-adamantyl 3-(7-chloro-2-oxo-2,3-dihydro-1H-benzo[d]imidazol-1-yl)pyrrolidine-1-carboxylate], for which the IC50 under setting [2] is less than 100 nM and the IC50 under setting [3] turned out to be 0.46 nM. The inhibition at 0.1 µM under setting [4] was determined as 96.9%.
Taken in the same sequence, the figures for `COC(=O)Cn1c(=O)n([C@H]2CCN(C(=O)O[C@H]3C4CC5CC3C[C@](C(N)=O)(C5)C4)C2)c2ccc(F)cc21` [EXAMPLE 72, (S)-trans-1-carbamoyl-4-adamantyl 3-(5-fluoro-3-(2-methoxy-2-oxoethyl)-2-oxo-2,3-dihydro-1H-benzo[d]imidazol-1-yl)pyrrolidine-1-carboxylate] were less than 100 nM, 7.11 nM and 84.9%.
Turning to `O=C(O)c1ccc(C2CCCN(C(=O)OC3C4CC5CC(C4)CC3C5)C2)cc1` (stereo not shown) [EXAMPLE 18, 4-(1-(2-adamantyloxycarbonyl)piperidin-3-yl)benzoic acid], the inhibition at 0.111 µM (Biological Test Example 1, 111 nM compound) is 82.2%. Further, the IC50 is, setting by setting: under setting [2], less than 100 nM; under setting [3], 27.8 nM.
